From US20210255193A1, “LYSINE REACTIVE PROBES AND USES THEREOF” (The Scripps Research Institute, priority 2017, published 2021)

Experiments:
Test in all cases: competitive isoTOP-ABPP
Format in all cases: binding
[1] = target: T1, MAP1LC3B Microtubule-associated proteins 1A/1B light chain (Homo sapiens, UniProt Q9GZQ8); set-up: key to isoTOP-ABPP reactivity ratio at lysine Q9GZQ8_K51: R = MS1 peak area ratio, DMSO (heavy) / compound-treated (light); conditions: for isoTOP-ABPP ratio (R) at liganded lysine Q9GZQ8_K51: sol, 231
T1 construct: isoTOP-ABPP experiments performed in cell lysates (in vitro); endogenous in cells; host or cells: soluble proteome of human cancer cell lines (MDA-MB-231; Ramos and Jurkat also prepared)
Protocol: (§1) In vitro covalent fragment treatment for isoTOP-ABPP. All compounds were made up as solutions in DMSO (100×) and were used at a final concentration of 50 μM for activated esters and 100 μM for guanidinylating agents. For each profiling sample, 0.5 ml of lysate was treated with 5 μl of the 100× compound stock solution or 5 μl of DMSO. Samples were treated with activated esters for
(§2) STP-alkyne labeling and click chemistry. For concentration-dependent reactivity measurements by isoTOP-ABPP, 0.5 ml proteome aliquots were treated at ambient temperature with 1 mM STP-alkyne 1 (5 μl of 100 mM stock in DMSO) and 0.1 mM STP alkyne 1 (5 μl of 10 mM stock in DMSO), respectively. For competitive isoTOP-ABPP, after in vitro fragment treatment (detailed above), the samples were labeled for 1 h at ambient temperature with 0.1 mM STP-alkyne 1 (5 μl of 10 mM stock in DMSO). Samples were conjugated by copper-mediated azide-alkyne cycloaddition (CuAAC) to either the light (1 mM STP-alkyne or fragment treated) or heavy (0.1 mM STP-alkyne or DMSO treated) TEV tags (10 μl of 5 mM stocks in DMSO, final concentration=100 μM) using tris(2-carboxyethyl)phosphine hydrochloride
(§3) R value calculation and processing. The ratios of light and heavy MS1 peaks for each unique peptide were quantified with a CIMAGE software using default parameters (3 MS1 acquisitions per peak and signal to noise threshold set to 2.5). For reactivity measurements by isoTOP-ABPP, the R value was calculated from the ratio of MS1 peak areas, comparing the 1 mM STP alkyne sample (light TEV tag) with the 0.1 mM STP alkyne sample (heavy TEV tag). For competitive isoTOP-ABPP, the R value was calculated from the ratio of MS1 peak areas, comparing the DMSO treated sample (heavy TEV tag) with the compound treated sample (light TEV tag). […] Ratios for unique peptide entries are calculated for each experiment; overlapping peptides with the same modified lysine (for example, different charge states, MudPIT chromatographic steps or tryptic termini) are grouped together and the median ratio is reported as the final ratio (R). The peptide ratios reported by CIMAGE were further filtered to ensure the removal or correction of low-quality ratios in each individual data set. The quality filters applied were the following: removal of half tryptic peptides; for ratios with high standard deviations from the median (90% of the median or above) the lowest ratio was taken instead of the median; removal of peptides with R=20 and only a single MS2 event triggered during the elution of the parent ion; manual annotation of all the peptides with ratios of 20, removing any peptides with low quality elution profiles that remained after the previous curation steps (only done for competitive isoTOP-ABPP).
(§4) Cross-data processing for fragment screening. For compound treated samples, biological replicates of the same condition were averaged, if the standard deviation was below 60% of the mean; otherwise, for lysines with at least one R value <4 for a particular compound, the lowest value of the ratio set was taken. For lysines, where all R values for a particular compound were ≥4, the average was reported. For peptides containing several possible modified lysines, the lysine with the highest number of quantification events was used for analysis and the remaining, redundant peptides were reported as alternative modification sites. Peptides included in the aggregate dataset (those used for further bioinformatics and statistical analyses) were required to have been quantified in 2 experiments for competitive isoTOP-ABPP. Lysines were categorized as liganded, if they had at least one ratio R≥4 (hit fragments). For liganded lysines with R=20 for all liganding events, lysines were required to have been quantified with R=20 in two separate experiments and were further required to have been quantified with R<20 in one additional experiment.

[2] = target: T2, ABHD10 Abhydrolase domain-containing protein 10, mitochondrial (Homo sapiens, UniProt Q9NUJ1); set-up: key to isoTOP-ABPP reactivity ratio at lysine Q9NUJ1_K185: R = MS1 peak area ratio, DMSO (heavy) / compound-treated (light); capped at 20; conditions: for isoTOP-ABPP ratio (R) at liganded lysine Q9NUJ1_K185: sol, 231; for isoTOP-ABPP ratio, lysine Q9NUJ1_K185: 50 uM_231_sol_in vitro
T2 construct: endogenous in cells; host or cells: MDA-MB-231 lysate
T2 sequence (Q9NUJ1 53-306): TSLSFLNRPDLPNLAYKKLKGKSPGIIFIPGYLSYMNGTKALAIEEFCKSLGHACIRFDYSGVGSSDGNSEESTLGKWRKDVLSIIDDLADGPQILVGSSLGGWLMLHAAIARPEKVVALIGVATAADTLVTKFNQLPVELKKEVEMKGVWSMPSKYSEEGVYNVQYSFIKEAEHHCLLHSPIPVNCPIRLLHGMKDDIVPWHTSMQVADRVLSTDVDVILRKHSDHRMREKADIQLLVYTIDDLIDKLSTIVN
Protocol: as §1, §2, §3, §4

OLA1 Obg-like ATPase 1 = target: T3, OLA1 Obg-like ATPase 1 (Homo sapiens, UniProt Q9NTK5); conditions: for isoTOP-ABPP ratio (R) at liganded lysine Q9NTK5_K248: sol, 231; for isoTOP-ABPP ratio, lysine Q9NTK5_K248: 50 uM_231_sol_in vitro
T3 construct: endogenous in cells; host or cells: MDA-MB-231 (soluble fraction of lysate)
Protocol: as §1, §2, §3, §4

[3] = target: T4, FECH Ferrochelatase, mitochondrial (Homo sapiens, UniProt P22830); conditions: for isoTOP-ABPP ratio (R) at liganded lysine P22830_K304: sol, 231; for isoTOP-ABPP ratio, lysine P22830_K304: 50 uM_231_sol_in vitro
T4 construct: isoTOP-ABPP experiments performed in cell lysates (in vitro); endogenous in cells; host or cells: soluble proteome of human cancer cell lines (MDA-MB-231; Ramos and Jurkat also prepared)
T4 sequence (P22830 55-423): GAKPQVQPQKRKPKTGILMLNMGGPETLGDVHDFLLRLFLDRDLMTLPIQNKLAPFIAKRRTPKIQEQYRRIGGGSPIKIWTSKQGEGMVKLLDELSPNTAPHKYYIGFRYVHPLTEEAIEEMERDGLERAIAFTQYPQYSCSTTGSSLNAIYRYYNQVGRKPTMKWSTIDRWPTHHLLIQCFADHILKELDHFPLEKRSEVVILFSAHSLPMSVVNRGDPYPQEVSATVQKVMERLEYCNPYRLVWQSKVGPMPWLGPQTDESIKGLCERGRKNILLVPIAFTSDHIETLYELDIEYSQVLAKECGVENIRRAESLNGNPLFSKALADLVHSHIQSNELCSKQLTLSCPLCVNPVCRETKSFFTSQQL
Protocol: as §1, §2, §3, §4

Compound	isoTOP-ABPP ratio (R) at liganded lysine Q9GZQ8_K51 ([1]; 50 uM, in vitro)	isoTOP-ABPP ratio (R) at liganded lysine Q9NUJ1_K185 ([2]; 50 uM, in vitro)	isoTOP-ABPP ratio (R) at liganded lysine Q9NTK5_K248 (OLA1 Obg-like ATPase 1; 50 uM, in vitro)	isoTOP-ABPP ratio, lysine Q9NUJ1_K185 [2]	isoTOP-ABPP ratio, lysine Q9NTK5_K248 (OLA1 Obg-like ATPase 1)	isoTOP-ABPP ratio, lysine P22830_K304 [3]	other results
O=C(CCc1coc2cc(F)ccc2c1=O)Oc1ccc([N+](=O)[O-])cc1[N+](=O)[O-] [fragment 36, 2,4-Dinitrophenyl 3-(7-fluoro-4-oxo-4H-chromen-3-yl)propanoate]	0.8	1.4	0.8				isoTOP-ABPP ratio (R) at liganded lysine P22830_K304 ([3]; 50 uM, in vitro): 2.0
O=C(Oc1ccc([N+](=O)[O-])cc1[N+](=O)[O-])C(c1ccccc1)(c1ccccc1)c1ccccc1 [fragment 42, 2,4-Dinitrophenyl 2,2,2-triphenylacetate]	0.9	1.0	1.0				isoTOP-ABPP ratio (R) at liganded lysine P22830_K304 ([3]; 50 uM, in vitro): 1.0
O=C(CCc1coc2cc(F)ccc2c1=O)Oc1c(F)c(F)c(F)c(F)c1F [fragment 26, Pentafluorophenyl 3-(7-fluoro-4-oxo-4H-chromen-3-yl)propanoate]							isoTOP-ABPP reactivity ratio at lysine Q9GZQ8_K51 ([1]; 50 uM, 231 sol, in vitro): 1.2; isoTOP-ABPP reactivity ratio at lysine Q9NUJ1_K185 ([2]; 50 uM, 231 sol, in vitro): 1.5; isoTOP-ABPP reactivity ratio at lysine Q9NTK5_K248 (OLA1 Obg-like ATPase 1; 50 uM, 231 sol, in vitro): 1.0; isoTOP-ABPP reactivity ratio at lysine P22830_K304 ([3]; 50 uM, 231 sol, in vitro): 1.7
O=C(Oc1ccc([N+](=O)[O-])cc1[N+](=O)[O-])c1ccccc1Nc1cccc(C(F)(F)F)c1 [fragment 40, 2,4-Dinitrophenyl 2-((3-(trifluoromethyl)phenyl)amino)benzoate]	1.0	0.9	0.9				
O=C(Oc1ccc([N+](=O)[O-])cc1[N+](=O)[O-])C1CCN(C(=O)OCc2ccccc2)CC1 [fragment 34, 1-Benzyl 4-(2,4-dinitrophenyl) piperidine-1,4-dicarboxylate]	1.0	1.5	0.9				
Cn1cc(CC(=O)Oc2c(F)c(F)c(F)c(F)c2F)c2ccccc21 [fragment 22, Pentafluorophenyl 2-(1-methyl-1H-indol-3-yl)acetate]							R value (DMSO/fragment) for probe 1 labeling ([1]; Q9GZQ8_K51, 50 uM, 231 sol, in vitro): 1.2; R value (DMSO/fragment) for probe 1 labeling ([2]; Q9NUJ1_K185, 50 uM, 231 sol, in vitro): 1.5; R value (DMSO/fragment) for probe 1 labeling (OLA1 Obg-like ATPase 1; Q9NTK5_K248, 50 uM, 231 sol, in vitro): 1.0; R value (DMSO/fragment) for probe 1 labeling ([3]; P22830_K304, 50 uM, 231 sol, in vitro): 2.0
O=C(Oc1c(F)c(F)c(C(F)(F)F)c(F)c1F)c1cc(C(F)(F)F)cc(C(F)(F)F)c1 [fragment 47, 2,3,5,6-Tetrafluoro-4-(trifluoromethyl)phenyl 3,5-bis(trifluoromethyl)benzoate]				1.8	1.2	2.2	isoTOP-ABPP ratio, lysine Q9GZQ8_K51 ([1]; 50 uM_231_sol_in vitro): 0.9
O=C(ON1C(=O)CCC1=O)c1cc(C(F)(F)F)cc(C(F)(F)F)c1 [fragment 46, 3,5-Bis(trifluoromethyl)benzoic acid NHS ester]				1.2	1.2	0.9	
NC(=O)c1cc(C(F)(F)F)cc(C(F)(F)F)c1 [fragment 51, reference compound]				1.0	0.9	0.8	
